Test results taken from patent publication US20100041615A1 (Medac Gesellschaft Fur Klinische Spezialpraparate MBH, priority 2006, published 2010).
Starred links: 1 amine or outer side, 2 acyl side, 3 side chain; linkers in the order of their positions; H or OH if unused. Non-standard residues stand in square brackets, D forms with d. Residues, ends and D or L forms follow the SMILES beside them. Groups on a side chain read outwards from the residue. *: point of attachment. γ‑MTX = gamma-methotrexate, CN(Cc1cnc2nc(N)nc(N)c2n1)c1ccc(C(=O)N[C@@H](CCC(=O)*)C(=O)O)cc1; DAMPA = CN(Cc1cnc2nc(N)nc(N)c2n1)c1ccc(C(=O)*)cc1; Hexanoyl(6-maleimido) = O=C1C=CC(=O)N1CCCCCC(=O)*; γGlu = O=C(O)[C@H](CCC(=O)[*:2])N[*:1]

Assays:
[1] = system: collagen-induced arthritis model; test: In vivo antirheumatic properties, collagen-induced arthritis model, therapy day 30-48; design: species or system mice (m, DBA/1); details: i.v. day 30, 34, 37, 41, 44, 48; dosage [mg/Kg] MTX equivalents: MTX 6 × 35, AW054-EMC 6 × 20
Procedure: Animals: mice (m, DBA/1; model: collagen-induced arthritis model) Therapy: day 30, 34, 37, 41, 44, 48; i. v. (10 mM sodium phosphate/5% D-glucose buffer pH 6.4); dosages relate to methotrexate equivalents.

[2] = system: OVCAR-3 (ovarian carcinoma growing subcutaneously); test: In vivo tumor-inhibiting properties, OVCAR-3 model; design: species or system nude mice NMRI; details: i.v. day 7, 14, 21, 28; dosage [mg/Kg] MTX equivalents: MTX 4 × 100, AW054-EMC 4 × 15, C175 3 × 15
Procedure: Animals: nude mice NMRI; tumor model: OVCAR-3 (ovarian carcinoma growing subcutaneously) Therapy: day 7, 14, 21, 28; i. v. (10 mM sodium phosphate/5% D-glucose buffer pH 6.4); dosages relate to methotrexate equivalents.

HSA = HSA (Homo sapiens, UniProt P02768); test: Bonding to HSA in human plasma (C18-RP-HPLC)
Chain of HSA (P02768 25-609): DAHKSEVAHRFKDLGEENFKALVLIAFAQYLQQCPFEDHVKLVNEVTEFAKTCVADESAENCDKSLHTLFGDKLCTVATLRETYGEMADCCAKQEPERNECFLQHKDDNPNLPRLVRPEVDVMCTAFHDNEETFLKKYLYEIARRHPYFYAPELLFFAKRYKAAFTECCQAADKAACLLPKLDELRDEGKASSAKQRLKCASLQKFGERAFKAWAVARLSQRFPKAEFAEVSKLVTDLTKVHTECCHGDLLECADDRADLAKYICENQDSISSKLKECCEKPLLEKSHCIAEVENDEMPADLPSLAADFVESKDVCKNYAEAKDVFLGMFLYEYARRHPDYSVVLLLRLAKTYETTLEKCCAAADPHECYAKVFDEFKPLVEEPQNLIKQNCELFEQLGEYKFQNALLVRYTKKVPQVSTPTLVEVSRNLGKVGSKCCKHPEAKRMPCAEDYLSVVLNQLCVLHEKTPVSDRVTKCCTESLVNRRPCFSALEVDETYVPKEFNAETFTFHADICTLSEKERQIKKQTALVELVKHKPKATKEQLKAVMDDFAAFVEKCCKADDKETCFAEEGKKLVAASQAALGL

[3] = Cleavage experiments of the albumin conjugates, summary of the examples; type: in vitro ADME; details: after cleavage of the albumin conjugates
Procedure: It becomes evident from the examples that after incubation with human blood plasma, the corresponding albumin conjugate is substantially formed already after 2 min. […] The cleavage results in the formation of e.g. H-Lys(γ-MTX)-OH, which constitutes the only low-molecular cleavage product. […] In the case of the collagen-induced arthritis model, it is about 20% of the corresponding methotrexate equivalent dosage.

[4] = system: collagen-induced arthritis model; test: Collagen-induced arthritis model, therapy twice a week as of day 14, 42 or 30 (Table 1: early treatment protocol); type: in vivo, mice (m, DBA/1); details: 35 mg/kg, n = 15, early treatment protocol
Procedure: Animals: mice (m, DBA/1; model: collagen-induced arthritis model) Therapy: twice a week as of day 14, 42 and 30, respectively; i. v. (10 mM sodium phosphate/5% D-glucose buffer pH 6.4); dosages relate to methotrexate equivalents.

[5] = synovial fluid of six patients suffering from rheumatoid arthritis; details: human (patients suffering from rheumatoid arthritis), 37° C., up to four hours
human blood plasma = details: 37° C., up to 24 hours
human plasma plasmin [6] = test: human plasma plasmin (370 mU) in buffer (4 mM sodium phosphate, 150 mM NaCl, pH 7.4); details: 37° C., up to 20 hours
human cathepsin B = human cathepsin B (2.1 U) in buffer (50 mM sodium acetate, 100 mM NaCl, 4 mM EDTA*2 Na, 8 mM L-cysteine, pH 5.0); details: 37° C., up to 24 hours
[7] = OVCAR-3 tumor homogenate (homogenate of a human ovarian xenograft); details: human ovarian xenograft (OVCAR-3), 37° C., up to four hours
human plasma plasmin [8] = target: human plasma plasmin (Homo sapiens, UniProt P00747); type: biochemical; details: pH 7.4
Chain of human plasma plasmin (Homo sapiens, UniProt P00747) (P00747 581-810 limits assumed): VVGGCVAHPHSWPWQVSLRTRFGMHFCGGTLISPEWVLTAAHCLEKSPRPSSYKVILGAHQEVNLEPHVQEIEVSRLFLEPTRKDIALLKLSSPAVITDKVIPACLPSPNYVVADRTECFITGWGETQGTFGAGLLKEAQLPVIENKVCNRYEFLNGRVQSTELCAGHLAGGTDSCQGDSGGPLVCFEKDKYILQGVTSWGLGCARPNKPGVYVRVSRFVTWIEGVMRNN
Chain of human plasma plasmin (Homo sapiens, UniProt P00747) (P00747 98-580 partner limits assumed): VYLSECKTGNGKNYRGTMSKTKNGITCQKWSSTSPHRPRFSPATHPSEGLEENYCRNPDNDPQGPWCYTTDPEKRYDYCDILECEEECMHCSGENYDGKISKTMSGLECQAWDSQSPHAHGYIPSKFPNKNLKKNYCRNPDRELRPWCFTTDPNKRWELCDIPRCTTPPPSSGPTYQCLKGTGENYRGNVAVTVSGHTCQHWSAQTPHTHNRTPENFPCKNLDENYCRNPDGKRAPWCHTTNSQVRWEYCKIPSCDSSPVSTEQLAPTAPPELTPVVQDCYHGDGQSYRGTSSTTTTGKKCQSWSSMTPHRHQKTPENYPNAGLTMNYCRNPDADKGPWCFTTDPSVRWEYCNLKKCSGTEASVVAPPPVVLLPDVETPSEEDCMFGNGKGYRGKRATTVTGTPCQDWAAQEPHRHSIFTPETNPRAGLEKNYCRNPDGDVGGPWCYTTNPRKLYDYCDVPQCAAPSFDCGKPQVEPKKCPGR
Procedure: Preparation of the albumin conjugate: 4.00 mg of EMC-D-Ala-Phe-Lys-Lys(γ-MTX)-OH are dissolved in 8 mL of a 5% HSA solution (Octopharm) at room temperature and shaken at 37° C. for 2 hours. Subsequently, the sample is brought to a concentration of 700 μM by concentration with Centriprep® disposable concentrators.
Cleavage by plasmin: Now, 100 μL of the solution of the albumin conjugate are diluted with 500 μL buffer (4 mM sodium phosphate, 150 mM NaCl, pH 7.4), 20 μL of human plasma plasmin (370 mU) are added and the mixture is incubated at 37° C. The determination of the cleavage products is performed with the HPLC method described in Example 2 (FIGS. 3 and 4).

[9] = type: in vitro ADME, human
Procedure: Preparation of the Tumor Homogenate: The Tumor Material is Comminuted by Means of a scalpel, and 200 mg of the mass are homogenized in a shaker with 800 μL buffer (Tris-buffer pH 7.4) with addition of 3-4 glass beads. Subsequently, centrifugation is carried out at 4° C. and the supernatant is aliquoted to 200 μL.
Now, 100 μL of the solution of the albumin conjugate EMC-D-Ala-Phe-Lys-Lys(γ-MTX)-OH described in Example 4 are diluted with 500 μL of a homogenate solution (homogenate, 1:2 diluted with buffer [4 mM sodium phosphate, 150 mM NaCl, pH 7.4]) and incubated at 37° C. The determination of the cleavage products is performed with the HPLC method described in Example 2 (FIG. 7).

C[C@@H](NC(=O)CCCCCN1C(=O)C=CC1=O)C(=O)N[C@@H](Cc1ccccc1)C(=O)N[C@@H](CCCCN)C(=O)N[C@@H](CCCCNC(=O)CC[C@H](NC(=O)c1ccc(N(C)Cc2cnc3nc(N)nc(N)c3n2)cc1)C(=O)O)C(=O)O [AW054-EMC, EMC-D-Ala-Phe-Lys-Lys(γ-MTX)-OH] ({Hexanoyl(6-maleimido)}-[dA]FKK([γGlu-DAMPA])-OH)
change of body weight [%] [1]: −0.2%
change of body weight [%] [2]: +12%

CSCC[C@H](NC(=O)[C@H](Cc1ccccc1)NC(=O)[C@H](C)NC(=O)[C@H](CCCNC(=N)N)NC(=O)CCCCCN1C(=O)C=CC1=O)C(=O)N[C@@H](CCCCNC(=O)CC[C@H](NC(=O)c1ccc(N(C)Cc2cnc3nc(N)nc(N)c3n2)cc1)C(=O)O)C(=O)O [C162, EMC-Arg-Ala-Phe-Met-Lys(γ-MTX)-OH] ({Hexanoyl(6-maleimido)}-RAFMK([γGlu-DAMPA])-OH)
bonding of the prodrug to HSA (albumin) in human plasma (HSA; 200 μM, 2 min incubation with human blood plasma at 37° C., HPLC detection at 300 or 370 nm): almost complete decrease of the prodrug peak
bonding of the prodrug to albumin in plasma with blocked cysteine-34-group (HSA; human blood plasma incubated with EMC (1000 μM) in advance, detection 370 nm): does not show a bonding of the prodrug to albumin

CSCC[C@H](NC(=O)[C@H](C)NC(=O)[C@H](CCCNC(=N)N)NC(=O)[C@H](CCCNC(=N)N)NC(=O)CCCCCN1C(=O)C=CC1=O)C(=O)N[C@@H](CCCCNC(=O)CC[C@H](NC(=O)c1ccc(N(C)Cc2cnc3nc(N)nc(N)c3n2)cc1)C(=O)O)C(=O)O [C175, EMC-Arg-Arg-Ala-Met-Lys(γ-MTX)-OH] ({Hexanoyl(6-maleimido)}-RRAMK([γGlu-DAMPA])-OH)
change of body weight [%] [2]: +7%

CN(Cc1cnc2nc(N)nc(N)c2n1)c1ccc(C(=O)NC(CCC(=O)NCCCCC(N)C(=O)O)C(=O)O)cc1 (centres unmarked) [H-Lys(γ-MTX)-OH]
further cleavage of the cleavage product into MTX and lysine [3]: not cleaved into MTX and lysine any more

CN(Cc1cnc2nc(N)nc(N)c2n1)c1ccc(C(=O)N[C@@H](CCC(=O)O)C(=O)O)cc1 [MTX, Methotrexate]
RA score Tag 55 [1]: 8.30
change of body weight [%] [1]: +6.9%
T/C [%] maximum [2]: 69%
change of body weight [%] [2]: +19%
improved or achieved abatement after created disease, figure in parentheses (share of animals) [4]: (53)
improved or achieved abatement after created disease, number of animals [4]: 8
mean arthritis score at the end of the test [4]: 3.1
mean period of time until breakout of renewed arthritis after beginning of treatment [4]: 17.3 days
occurrence of arthritis at the end of the test (%) [4]: (60) %
occurrence of arthritis at the end of the test, number of animals [4]: 9

EMC-Arg-Ala-Phe-Met-Lys(γ-MTX)-OH
fragment found [5]: H-Lys(γ-MTX)-OH, four hours

EMC-D-Ala-Phe-Lys-Lys(γ-MTX)-OH ({Hexanoyl(6-maleimido)}-[dA]FKK([γGlu-DAMPA])-OH; SMILES C[C@@H](NC(=O)CCCCCN1C(=O)C=CC1=O)C(=O)N[C@@H](Cc1ccccc1)C(=O)N[C@@H](CCCCN)C(=O)N[C@@H](CCCCNC(=O)CC[C@H](NC(=O)c1ccc(N(C)Cc2cnc3nc(N)nc(N)c3n2)cc1)C(=O)O)C(=O)O)
not cleaved (human blood plasma): loss of MTX is less than 10% after 24 hours

HSA-EMC-D-Ala-Phe-Lys-Lys(γ-MTX)-OH
cleaved bond (human plasma plasmin [6]): Lys-Lys, one and four hours, respectively
cleaved bond (human cathepsin B): Lys-Lys, one and four hours, respectively
fragment found [7]: H-Lys(γ-MTX)-OH, four hours

HSA-EMC-D-Ala-Phe-Lys-Lys(γ-MTX)-OH ({HSA-Hexanoyl(6-maleimido)}-[dA]FKK(γ‑MTX)-OH)
cleavage by plasmin (human plasma plasmin [8]): formation of H-Lys(γ-MTX)-OH as a cleavage product
cleavage in OVCAR-3 tumor homogenate [9]: formation of H-Lys(γ-MTX)-OH as a cleavage product can be observed
